Data from US11473094B2, “Methods for improving competency of plant cells” (Monsanto Technology LLC, priority 2010, dated 2022).

System: Soybean cv. A3555 dry embryos
Test: Transformation frequency, PEG compared to other osmotic compounds
Type: cell-based
Conditions: 1 hour contact, AB30/OriRi
Excerpt: It also compares TF enhancement of treatments with various PEG species. Soybean cv. […] dry embryos were excised according to the method described in U.S. Patent Application Publication No. 2008/0280361 and contacted for an hour with various amounts of PEG-4000, PEG-6000, PEG-8000, Mannitol, Sorbitol, or Glycerol dissolved in SDW. The embryos were then rinsed 5-6× with SDW and transformed according to the methods described in U.S. Patent Application Publication No. 2009/0138985. The embryos were transformed with a 2T transformation vector having an OriRi replication of origin and contained in AB30 strain of Agrobacterium. The embryos were regenerated on spectinomycin selection medium.

In the case of OCC(O)CO [glycerol, Glycerol], the “# R0 Plants” value (10% in SDW) is reported as 4, the TF (10% in SDW) is reported as 2.30% and the “# R0 Plants” value (20% in SDW) is reported as 0. The TF (20% in SDW) was 0.00%.
With OC[C@@H](O)[C@@H](O)[C@H](O)[C@H](O)CO [mannitol, Mannitol] the “# R0 Plants” value (10% in SDW) was 5 and the TF (10% in SDW) was 0.50%.
In the case of OC[C@@H](O)[C@@H](O)[C@H](O)[C@@H](O)CO [sorbitol, Sorbitol], the “# R0 Plants” value (10% in SDW) is reported as 4, the TF (10% in SDW) is reported as 0.40% and the “# R0 Plants” value (20% in SDW) is reported as 3. For the same compound, the TF (20% in SDW) was 0.30%.
